Experimental findings from patent publication US20230248826A1, “Synchronizing Tumor Cells to the G2/M Phase Using TTFields Combined with Taxane or Other Anti-Microtubule Agents” (Novocure GmbH, priority 2016, published 2023) are described below.

Format in all cases: cell-based, human
In test [1] the test system is Caov-3 cells. Put plainly: Cell cycle analysis by flow cytometry, Caov-3. To be noted: 72 hours. As for the experimental part:
(§1) The human ovarian carcinoma cell line A2780 was obtained from the European Collection of Cell Cultures. The human ovarian adenocarcinoma cell lines OVCAR-3 (HTB-161) and Caov-3 (HTB-75) were obtained from the American Type Culture Collection (ATCC). Paclitaxel (Sigma Aldrich, Rehovot, Israel) dissolved in DMSO was used at the following concentrations: 1 nM, 2 nM, 4 nM, 10 nM, and 100 nM. TTFields were applied in vitro using special ceramic Petri dishes with two pairs of transducer arrays printed perpendicularly on the outer walls of a Petri dish. The inner surfaces of the electrodes were coated with a high dielectric constant ceramic (lead magnesium niobate-lead titanate (PMN-PT)). […] By selectively activating the signals that were applied to the electrodes, the orientation of the TTFields was switched 90° every 1 second, thus covering the majority of the orientation axis of cell divisions, as previously described by Kirson et al. During the experiment, temperature was measured by 2 thermistors (Omega Engineering, Stamford, Conn.) attached to the walls of the Petri dish. […] Cell cycle distribution was then quantified using iCyt EC800. Fluorescence signals were collected at the wavelengths of 525/50 nm for Annexin V and 665/30 nm for 7-AAD. The data was analyzed using the Flowjo software. […]
In general terms: In flow cytometry, cells or beads pass a laser one at a time.

In test [2] the test system is Caov-3 cells. Description: Mitotic figures analysis by confocal microscopy, Caov-3. The conditions noted are these: 4 nM paclitaxel combined with 2.7 V/cm pk-pk, 200 kHz TTFields, 72 hours, Caov-3, compared to control and single treatments. Here is the method:
(§2) The human ovarian carcinoma cell line A2780 was obtained from the European Collection of Cell Cultures. The human ovarian adenocarcinoma cell lines OVCAR-3 (HTB-161) and Caov-3 (HTB-75) were obtained from the American Type Culture Collection (ATCC). Paclitaxel (Sigma Aldrich, Rehovot, Israel) dissolved in DMSO was used at the following concentrations: 1 nM, 2 nM, 4 nM, 10 nM, and 100 nM.
(§3) TTFields were applied in vitro using special ceramic Petri dishes with two pairs of transducer arrays printed perpendicularly on the outer walls of a Petri dish. The inner surfaces of the electrodes were coated with a high dielectric constant ceramic (lead magnesium niobate-lead titanate (PMN-PT)). The transducer arrays were connected to a sinusoidal waveform generator which generated fields at 200 kHz in the medium. By selectively activating the signals that were applied to the electrodes, the orientation of the TTFields was switched 90° every 1 second, thus covering the majority of the orientation axis of cell divisions, as previously described by Kirson et al. During the experiment, temperature was measured by 2 thermistors (Omega Engineering, Stamford, Conn.) attached to the walls of the Petri dish. All cells suspensions were grown on a cover slip inside the Petri dish and treated with TTFields at intensity of 2.7 V/cm. […]

Test [3] has as its system OVCAR-3 cells. Description: Cell cycle analysis by flow cytometry, OVCAR-3. To be noted: 72 hours. Here is the method:
as §1

Test [4] deals with A2780 cells. Put plainly: Cell cycle analysis by flow cytometry, A2780. The conditions noted are these: 8 hours. Here is the method: as §1
Test [5] concerns OVCAR-3 cells. Put plainly: Mitotic figures analysis by confocal microscopy, OVCAR-3. The conditions noted are these: 4 nM paclitaxel combined with 2.7 V/cm pk-pk, 200 kHz TTFields, 72 hours, OVCAR-3, compared to control and single treatments. Here is the method: as §2, §3
Test [6] has as its system A2780 cells. Put plainly: Mitotic figures analysis by confocal microscopy, A2780. To be noted: 4 nM paclitaxel combined with 2.7 V/cm pk-pk, 200 kHz TTFields, 72 hours, A2780, compared to control and single treatments. As for the experimental part: as §2, §3
Where [7] appears, read: low dose paclitaxel (2, 4 and 10 nM) combined with TTFields (2.7 V/cm, 200 kHz).
[8] abbreviates: paclitaxel alone, without TTFields.

Regarding `CC(=O)O[C@H]1C(=O)[C@@]2(C)[C@H]([C@H](OC(=O)c3ccccc3)[C@]3(O)C[C@H](OC(=O)[C@H](O)[C@@H](NC(=O)c4ccccc4)c4ccccc4)C(C)=C1C3(C)C)[C@]1(OC(C)=O)CO[C@@H]1C[C@@H]2O` [paclitaxel], the “number of cells in the G2/M phase” value in the test with Caov-3 cells [1] (setting [7]) and in the test on OVCAR-3 cells [3] (setting [7]) was “dramatically increased” throughout. Besides, the “cells in the G2/M phase” value is reported as “accumulated in the G2/M phase in a dose dependent manner” in the test on Caov-3 cells [1] (setting [8]); “accumulated in the G2/M phase in a dose dependent manner” in the test on OVCAR-3 cells [3] (setting [8]); “accumulated in the G2/M phase even after a short treatment duration” with A2780 cells [4] (low dose paclitaxel combined with TTFields (2.7 V/cm, 200 kHz)); “accumulated in the G2/M phase in a dose dependent manner” with A2780 cells [4] (setting [8]). The “mitotic figures (mitotic arrest)” value in the test on Caov-3 cells [2], with OVCAR-3 cells [5] and in the test on A2780 cells [6] was “substantial increase in mitotic figures” in each case.
